Results as given in US5371102A, “Compositions and methods of inhibiting thyroid activity” (priority 1993, dated 1994).

Experiments:
peroxidase = assay: peroxidase/H2O2/I- triiodide formation with DMIT; format: biochemical; conditions: H2O2 and I-, varying quantities of DMIT
Experimental: DMIT was synthesized according to the published method by Maier, Helv. Chim. Acta, Vol. 53, p. 1417 (1970). Varying quantities of DMIT were incubated with peroxidase, H2 O2 and I^-. Triiodide formation was observed spectrophotometrically as a function of time. […] An initial lag phase was dependent on the amount of thione used, followed by a rate increase to approximately the control rate.

LPX [1] = molecular target: T1, LPX (Bos taurus, UniProt P80025); assay: LPX iodide ion oxidation activity after incubation and dilution; format: biochemical, bovine; conditions: LPX/hydrogen peroxide, absence of iodide ion
T1 construct: purchased Sigma Chemical Company
Text: (§1) Materials used in the examples below were obtained from the following sources. Bovine LPX, bovine liver catalase, glucose oxidase, 30% hydrogen peroxide, glucose, guaiacol, ABTS and deuterium oxide were purchased from Sigma Chemical Company. Selenium dioxide, MBI ^13 CH3 I and PBA were purchased from Aldrich Chemical Company and PBA was purified as previously described by Fieset et al., Reagents for Organic Synthesis, Vol. I, pp.135-139, John Wiley and Sons, N.Y. (1967). LPX purity was checked by PAGE, as described by Doerge, D.R., et al. in, Biochem. Pharmacol., Vol.36, pp.972-974 (1986). TPX was purified from hog thyroids obtained from a local slaughterhouse by published procedures. Doerge & Takazowa, Chemical Research in Toxicology, Vol. 3, pp. 98-101 (1990). TPX purity was determined by LC and its concentration determined spectophotometrically. Hydroperoxide concentrations were determined by iodometric titration, as described by Kolthoff, et al., in "Quantitative Chemical Analysis", Macmillan, London, pp.842-860 (1969). MMBI, and BI were synthesized by published procedures as described by Doerge, D.R., Biochem, Vol. 27, pp. 3697-3700 (1988) and were recrystallized from aqueous ethanol. MeBI was purified by distillation and DMeBI^+ was synthesized and purified by recrystallization from ethyl acetate/methanol. 1-^13 C-MMBI was synthesized from ^13 CH3 I according to the procedure disclosed by Doerge, D.R., in, J. Lab. Comp. and Radiopharm., Vol.25, pp.985-990 (1988). PPHP and PPA were prepared, purified and analyzed as previously described by Doerge, Biochem, Vol.27, p.11 (1988). The methyl ester of 1-methyl-benzimidazole-2-sulfinic acid was prepared by addition of hydrogen peroxide (5 equivalents of a 10 M solution) to MMBI (0.1 M) in methanol. The products, MeBI and the ester, were obtained following preparative TLC on silica (Uniplate, Analtech Co., Newark, DL) using 5% methanol/chloroform as eluant.
The following experiment was performed to determine the effect of DMMBI oxidation on LPX activity. LPX (0.1 μM, final concentration) was incubated with hydrogen peroxide (100 μM), iodide ion (5 mM) and DMMBI (100 μM), as indicated in Table 2. After a 100 second incubation at 25° C., an aliquot was diluted 200-fold and the iodide ion oxidation activity determined. Values shown in Table 2, are averages +/- standard deviations (n=4) of the percentage relative to untreated LPX.

LPX and TPX = assay: suicide inhibition of peroxidases (summary statements); format: biochemical
LPX [2] = molecular target: T1, LPX; assay: LPX-catalyzed iodide ion oxidation (triiodide formation); format: biochemical, bovine; conditions: LPX, H2O2, iodide ion
Text: as §1, with “The products, MeBI and the ester, were obtained following preparative TLC on silica (Uniplate, Analtech Co., Newark, DL) using 5% methanol/chloroform as eluant.” left out
Inhibition of LPX activity by thiones was determined from the kinetics of iodide ion, guaiacol or ABTS oxidation assays conducted at 25° C. Kinetic parameters of suicide inactivation were determined as previously described. […]

CN1CCN(C)C1=S [DMIT, 1,3-dimethylimidazolidine-2-thione]
effect on triiodide formation (peroxidase): substantially the same as reported for DMMBI in Example 1 and Ac2 MBI in Example 2 | loss of enzymatic activity (LPX [1]): did not cause any loss of enzymatic activity | selectivity for iodide ion oxidation (LPX and TPX; alternate substrate mechanism): block only reactions involving iodide ion oxidation | suicide inhibition (LPX and TPX; summary of own examples): not suicide inhibitors | inhibition of iodide ion oxidation (triiodide formation) (LPX [2]): Identical results
